{"source": "paper PMC6858350", "about": "“A common mechanism allows selective targeting of GluN2B subunit-containing N-methyl-D-aspartate receptors” (Communications Biology, 2019)", "key": {"[1]": {"target": "GluN1-1a/GluN2B NMDAR (wildtype) (Rattus norvegicus, UniProt P35439+Q00960)", "type": "cell-based"}, "[2]": {"target": "T1, GluN1-1a Y109S/GluN2B WT (Rattus norvegicus, UniProt P35439+Q00960, Y109S)", "details": "GluN1-1a Y109S"}, "[3]": {"target": "T2, GluN1-1a F113S/GluN2B WT (Rattus norvegicus, UniProt P35439+Q00960, F113S)", "details": "GluN1-1a F113S"}, "[4]": {"target": "T3, GluN1-1a S132A/GluN2B WT (Rattus norvegicus, UniProt P35439+Q00960, S132A)", "details": "GluN1-1a S132A"}, "[5]": {"target": "T4, GluN1-1a L135N/GluN2B WT (Rattus norvegicus, UniProt P35439+Q00960, L135N)", "details": "GluN1-1a L135N"}, "[6]": {"target": "T5, GluN1-1a WT/GluN2B Q110A (Rattus norvegicus, UniProt P35439+Q00960, Q110A)", "T5 sequence (Q00960 27-1482 Q110A, other chains not shown)": "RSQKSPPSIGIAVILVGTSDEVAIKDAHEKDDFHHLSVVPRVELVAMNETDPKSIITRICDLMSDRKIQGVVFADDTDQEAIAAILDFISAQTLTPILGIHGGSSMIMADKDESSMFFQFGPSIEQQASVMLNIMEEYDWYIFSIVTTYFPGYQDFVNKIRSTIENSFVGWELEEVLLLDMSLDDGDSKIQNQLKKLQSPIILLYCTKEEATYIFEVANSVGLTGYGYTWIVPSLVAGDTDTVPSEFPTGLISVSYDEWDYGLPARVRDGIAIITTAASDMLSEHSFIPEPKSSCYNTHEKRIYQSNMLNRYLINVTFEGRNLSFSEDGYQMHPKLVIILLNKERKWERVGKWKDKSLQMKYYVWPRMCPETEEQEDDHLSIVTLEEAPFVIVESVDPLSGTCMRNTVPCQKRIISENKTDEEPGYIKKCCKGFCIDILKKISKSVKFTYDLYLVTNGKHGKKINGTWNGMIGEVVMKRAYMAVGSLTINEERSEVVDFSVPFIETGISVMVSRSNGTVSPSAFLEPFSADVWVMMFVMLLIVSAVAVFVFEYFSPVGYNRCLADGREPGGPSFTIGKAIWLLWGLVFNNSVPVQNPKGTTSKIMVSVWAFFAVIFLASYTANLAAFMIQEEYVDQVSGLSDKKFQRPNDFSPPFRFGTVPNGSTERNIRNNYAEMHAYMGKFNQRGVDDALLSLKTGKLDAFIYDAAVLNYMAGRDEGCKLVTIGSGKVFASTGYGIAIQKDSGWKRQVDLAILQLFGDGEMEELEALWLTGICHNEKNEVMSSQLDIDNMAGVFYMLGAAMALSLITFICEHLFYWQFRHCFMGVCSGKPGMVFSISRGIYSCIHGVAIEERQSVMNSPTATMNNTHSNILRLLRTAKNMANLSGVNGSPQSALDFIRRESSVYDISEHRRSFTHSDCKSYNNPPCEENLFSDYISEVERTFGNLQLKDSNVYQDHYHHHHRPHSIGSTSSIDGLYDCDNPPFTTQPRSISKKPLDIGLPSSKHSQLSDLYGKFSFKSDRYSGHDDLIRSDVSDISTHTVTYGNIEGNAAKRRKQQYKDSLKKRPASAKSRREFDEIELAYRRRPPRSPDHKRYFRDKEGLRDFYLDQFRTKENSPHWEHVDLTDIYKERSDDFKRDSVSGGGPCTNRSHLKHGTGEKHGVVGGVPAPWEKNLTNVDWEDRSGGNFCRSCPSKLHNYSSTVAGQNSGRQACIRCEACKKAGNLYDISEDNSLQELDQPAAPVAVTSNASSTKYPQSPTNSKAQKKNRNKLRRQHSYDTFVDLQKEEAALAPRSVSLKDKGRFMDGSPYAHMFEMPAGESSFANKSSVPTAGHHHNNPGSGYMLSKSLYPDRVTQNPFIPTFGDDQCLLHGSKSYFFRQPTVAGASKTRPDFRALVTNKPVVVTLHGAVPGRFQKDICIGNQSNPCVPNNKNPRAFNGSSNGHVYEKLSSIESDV", "details": "GluN2B Q110A"}, "[7]": {"target": "T6, GluN1-1a WT/GluN2B I111A (Rattus norvegicus, UniProt P35439+Q00960, I111A)", "T6 sequence (Q00960 27-1482 I111A, other chains not shown)": "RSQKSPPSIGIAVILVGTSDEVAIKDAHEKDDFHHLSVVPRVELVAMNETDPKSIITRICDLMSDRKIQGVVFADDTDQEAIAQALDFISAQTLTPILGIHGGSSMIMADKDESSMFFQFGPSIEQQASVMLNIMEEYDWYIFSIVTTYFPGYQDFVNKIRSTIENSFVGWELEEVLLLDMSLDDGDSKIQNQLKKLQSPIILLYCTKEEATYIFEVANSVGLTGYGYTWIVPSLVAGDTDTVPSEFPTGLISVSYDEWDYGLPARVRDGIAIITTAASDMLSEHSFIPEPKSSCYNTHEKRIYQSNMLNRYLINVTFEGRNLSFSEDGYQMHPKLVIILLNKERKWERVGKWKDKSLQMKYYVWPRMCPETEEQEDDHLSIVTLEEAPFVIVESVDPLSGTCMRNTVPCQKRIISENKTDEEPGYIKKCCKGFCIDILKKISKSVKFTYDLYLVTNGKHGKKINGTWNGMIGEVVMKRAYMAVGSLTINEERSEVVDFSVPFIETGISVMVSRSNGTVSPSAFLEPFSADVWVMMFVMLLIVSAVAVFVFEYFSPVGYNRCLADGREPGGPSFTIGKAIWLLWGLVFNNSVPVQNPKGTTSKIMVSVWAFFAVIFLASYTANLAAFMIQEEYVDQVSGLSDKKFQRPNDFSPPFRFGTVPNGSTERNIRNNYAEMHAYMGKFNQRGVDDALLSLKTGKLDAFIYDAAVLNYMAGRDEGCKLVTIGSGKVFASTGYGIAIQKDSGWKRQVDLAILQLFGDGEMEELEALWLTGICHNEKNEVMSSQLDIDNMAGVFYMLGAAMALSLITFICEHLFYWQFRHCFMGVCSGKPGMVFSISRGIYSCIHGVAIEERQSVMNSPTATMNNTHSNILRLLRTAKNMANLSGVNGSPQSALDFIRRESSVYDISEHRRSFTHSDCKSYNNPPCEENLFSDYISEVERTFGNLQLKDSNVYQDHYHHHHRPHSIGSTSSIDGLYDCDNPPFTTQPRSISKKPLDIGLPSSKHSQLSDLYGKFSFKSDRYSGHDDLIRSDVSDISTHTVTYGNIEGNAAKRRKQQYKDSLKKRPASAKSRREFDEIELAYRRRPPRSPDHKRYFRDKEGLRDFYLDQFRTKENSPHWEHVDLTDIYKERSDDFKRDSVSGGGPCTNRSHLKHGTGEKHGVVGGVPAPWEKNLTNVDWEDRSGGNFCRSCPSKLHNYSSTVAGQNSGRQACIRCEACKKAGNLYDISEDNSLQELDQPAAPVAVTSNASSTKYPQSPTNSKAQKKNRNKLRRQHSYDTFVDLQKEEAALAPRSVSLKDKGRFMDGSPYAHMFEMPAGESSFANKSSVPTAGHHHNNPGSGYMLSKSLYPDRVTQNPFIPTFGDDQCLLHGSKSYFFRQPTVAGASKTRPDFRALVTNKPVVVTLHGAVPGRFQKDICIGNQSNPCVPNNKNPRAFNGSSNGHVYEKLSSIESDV", "details": "GluN2B I111A"}, "[8]": {"target": "T7, GluN1-1a WT/GluN2B F114A (Rattus norvegicus, UniProt P35439+Q00960, F114A)", "details": "GluN2B F114A"}, "[9]": {"target": "T8, GluN1-1a/GluN2B (ifenprodil binding site) (Homo sapiens, UniProt Q05586+Q13224)", "T8 construct": "expressed in transfected cells; host or cells: mouse L(tk) cells, dexamethasone-inducible expression; membrane fraction", "details": "displacement of [3H]ifenprodil; Ki values previously published; read-out: Ki + SEM; cited from earlier work"}, "[10]": {"target": "T9, GluN1-1a WT/GluN2B F176A (Rattus norvegicus, UniProt P35439+Q00960, F176A)", "details": "GluN2B F176A"}, "[11]": {"target": "T10, GluN1-1a WT/GluN2B F176Y (Rattus norvegicus, UniProt P35439+Q00960, F176Y)", "T10 sequence (Q00960 27-1482 F176Y, other chains not shown)": "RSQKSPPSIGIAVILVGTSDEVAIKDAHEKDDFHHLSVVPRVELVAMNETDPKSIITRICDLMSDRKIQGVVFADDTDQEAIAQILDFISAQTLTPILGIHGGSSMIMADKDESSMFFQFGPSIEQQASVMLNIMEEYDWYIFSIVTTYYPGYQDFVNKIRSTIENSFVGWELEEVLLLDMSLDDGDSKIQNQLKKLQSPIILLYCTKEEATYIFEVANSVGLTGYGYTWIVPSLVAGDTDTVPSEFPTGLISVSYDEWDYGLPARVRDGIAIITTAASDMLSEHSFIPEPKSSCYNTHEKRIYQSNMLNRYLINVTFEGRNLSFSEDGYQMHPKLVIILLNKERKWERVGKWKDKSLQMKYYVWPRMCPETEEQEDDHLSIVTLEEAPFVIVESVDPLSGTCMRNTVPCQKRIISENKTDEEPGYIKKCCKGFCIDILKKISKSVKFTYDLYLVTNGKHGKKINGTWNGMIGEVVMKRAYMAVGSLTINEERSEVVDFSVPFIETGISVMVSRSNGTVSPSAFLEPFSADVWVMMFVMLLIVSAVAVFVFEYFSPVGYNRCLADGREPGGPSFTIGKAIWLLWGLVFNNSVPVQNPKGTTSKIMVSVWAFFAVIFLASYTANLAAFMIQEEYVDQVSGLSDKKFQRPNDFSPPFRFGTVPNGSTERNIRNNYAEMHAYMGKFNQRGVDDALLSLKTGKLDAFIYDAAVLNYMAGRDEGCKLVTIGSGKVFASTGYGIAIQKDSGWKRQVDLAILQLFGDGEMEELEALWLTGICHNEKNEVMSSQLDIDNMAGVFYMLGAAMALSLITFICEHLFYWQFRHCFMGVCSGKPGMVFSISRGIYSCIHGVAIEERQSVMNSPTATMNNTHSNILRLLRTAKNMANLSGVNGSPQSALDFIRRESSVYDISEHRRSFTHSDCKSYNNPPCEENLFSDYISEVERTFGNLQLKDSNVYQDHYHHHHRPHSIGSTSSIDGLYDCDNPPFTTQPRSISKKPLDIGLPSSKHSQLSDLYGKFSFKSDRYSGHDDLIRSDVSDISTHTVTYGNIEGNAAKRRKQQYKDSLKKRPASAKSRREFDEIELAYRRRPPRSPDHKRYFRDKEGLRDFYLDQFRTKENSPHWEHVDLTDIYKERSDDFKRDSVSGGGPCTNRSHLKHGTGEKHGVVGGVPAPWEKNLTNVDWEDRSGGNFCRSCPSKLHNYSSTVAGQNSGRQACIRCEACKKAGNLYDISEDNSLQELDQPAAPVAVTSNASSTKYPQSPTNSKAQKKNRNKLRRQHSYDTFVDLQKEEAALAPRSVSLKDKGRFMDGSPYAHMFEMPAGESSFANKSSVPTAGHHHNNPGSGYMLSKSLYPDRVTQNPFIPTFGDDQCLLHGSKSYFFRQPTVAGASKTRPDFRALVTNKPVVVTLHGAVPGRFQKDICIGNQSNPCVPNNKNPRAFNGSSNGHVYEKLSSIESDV", "details": "GluN2B F176Y"}, "[12]": {"target": "GluN1-1a WT/GluN2B E236A (Rattus norvegicus, UniProt P35439+Q00960, E236A)", "details": "GluN2B E236A"}, "[13]": {"target": "T1, GluN1-1a Y109S/GluN2B WT", "experiment": "cell-based"}, "[14]": {"target": "T2, GluN1-1a F113S/GluN2B WT", "experiment": "cell-based"}, "[15]": {"target": "T3, GluN1-1a S132A/GluN2B WT", "experiment": "cell-based"}, "[16]": {"target": "T4, GluN1-1a L135N/GluN2B WT", "experiment": "cell-based"}, "[17]": {"target": "T5, GluN1-1a WT/GluN2B Q110A", "experiment": "cell-based"}, "[18]": {"target": "T6, GluN1-1a WT/GluN2B I111A", "experiment": "cell-based"}, "[19]": {"target": "T7, GluN1-1a WT/GluN2B F114A", "experiment": "cell-based"}, "[20]": {"target": "T9, GluN1-1a WT/GluN2B F176A", "experiment": "cell-based"}, "[21]": {"target": "T10, GluN1-1a WT/GluN2B F176Y", "experiment": "cell-based"}, "[22]": {"target": "GluN1-1a/GluN2A NMDAR (Rattus norvegicus, UniProt P35439+Q00959)", "experiment": "cell-based", "details": "read-out: ion current inhibition % ± SEM, GluN2A"}, "[23]": {"target": "GluN1-1a/GluN2C NMDAR (Rattus norvegicus, UniProt P35439+Q00961)", "experiment": "cell-based", "details": "read-out: ion current inhibition % ± SEM, GluN2C"}, "[24]": {"target": "GluN1-1a/GluN2D NMDAR (Rattus norvegicus, UniProt P35439+Q62645)", "experiment": "cell-based", "details": "read-out: ion current inhibition % ± SEM, GluN2D"}, "[25]": {"details": "maximum inhibition fixed to wildtype value"}}, "data": [{"smiles": "Oc1ccc2c(c1)CCN(CCCCc1ccccc1)C[C@H]2O", "note": "[compound (S)-1]", "values": [{"measurement": "IC50", "setting": "[1]; TEVC, holding potential −70 mV, 10 µM glycine and 10 µM (S)-glutamate, wildtype, read-out: IC50 ± SE", "result": "206 ± 23", "unit": "nM"}, {"measurement": "p (slope of the dose-response curve)", "setting": "[1]; TEVC, −70 mV, wildtype", "result": 0.98}, {"measurement": "A2 ± SE (maximum inhibition from dose-response curve)", "setting": "[1]; TEVC, −70 mV, wildtype, flexible A2", "result": "95 ± 2", "unit": "%"}, {"measurement": "inhibition at 10 µM", "setting": "[1]; read-out: ion current inhibition % ± SEM, GluN2B", "result": "93 ± 1", "unit": "%"}, {"measurement": "p (slope)", "setting": "[2]", "result": 0.85}, {"measurement": "A2 ± SE", "setting": "[2]; flexible A2", "result": "79 ± 4", "unit": "%"}, {"measurement": "p (slope)", "setting": "[3]", "result": 0.87}, {"measurement": "A2 ± SE", "setting": "[3]; flexible A2", "result": "89 ± 4", "unit": "%"}, {"measurement": "p (slope)", "setting": "[4]", "result": 1.16}, {"measurement": "A2 ± SE", "setting": "[4]; flexible A2", "result": "89 ± 1", "unit": "%"}, {"measurement": "p (slope)", "setting": "[5]", "result": 0.98}, {"measurement": "A2 ± SE", "setting": "[5]; flexible A2", "result": "68 ± 7", "unit": "%"}, {"measurement": "p (slope)", "setting": "[6]", "result": 1.27}, {"measurement": "A2 ± SE", "setting": "[6]; flexible A2", "result": "94 ± 2", "unit": "%"}, {"measurement": "p (slope)", "setting": "[7]", "result": 0.89}, {"measurement": "A2 ± SE", "setting": "[7]; flexible A2", "result": "73 ± 6", "unit": "%"}, {"measurement": "p (slope)", "setting": "[8]", "result": 1.26}, {"measurement": "A2, fixed-to-wildtype (*)", "setting": "[8]; [25]", "result": 95, "unit": "%"}, {"measurement": "Ki", "setting": "[9]", "result": "740 ± 61", "unit": "nM"}, {"measurement": "p (slope)", "setting": "[10]", "result": 1.00}, {"measurement": "A2, fixed-to-wildtype (*)", "setting": "[10]; [25]", "result": 95, "unit": "%"}, {"measurement": "p (slope)", "setting": "[11]", "result": 0.82}, {"measurement": "A2, fixed-to-wildtype (*)", "setting": "[11]; [25]", "result": 95, "unit": "%"}, {"measurement": "p (slope)", "setting": "[12]", "result": 0.99}, {"measurement": "A2 ± SE", "setting": "[12]; flexible A2", "result": "96 ± 8", "unit": "%"}, {"measurement": "IC50", "setting": "[13]", "result": "764 ± 189", "unit": "nM"}, {"measurement": "IC50", "setting": "[14]", "result": "756 ± 137", "unit": "nM"}, {"measurement": "IC50", "setting": "[15]", "result": "691 ± 44", "unit": "nM"}, {"measurement": "IC50", "setting": "[16]", "result": "3660 ± 1180", "unit": "nM"}, {"measurement": "IC50", "setting": "[17]", "result": "243 ± 34", "unit": "nM"}, {"measurement": "IC50", "setting": "[18]", "result": "1560 ± 504", "unit": "nM"}, {"measurement": "IC50", "setting": "[19]", "result": "38900 ± 5280", "unit": "nM"}, {"measurement": "IC50", "setting": "[20]", "result": "15500 ± 1790", "unit": "nM"}, {"measurement": "IC50", "setting": "[21]", "result": "261 ± 25", "unit": "nM"}, {"measurement": "inhibition at 10 µM", "setting": "[22]", "result": "6 ± 2", "unit": "%"}, {"measurement": "inhibition at 10 µM", "setting": "[23]", "result": "19 ± 2", "unit": "%"}, {"measurement": "inhibition at 10 µM", "setting": "[24]", "result": "21 ± 3", "unit": "%"}]}]}
